Measurements from paper PMC7031696 (Cell chemical biology, 2019).

Columns and labels:
[1] = Solubility Assay (UV/vis spectroscopy, filter method); settings: 1 × PBS pH 7.4, 500 μM, UV/vis 280–360 nm minus 800 nm
[2] = tested on: synchronized Plasmodium falciparum parasites; test: Microscopical study of cell morphology after 8-h exposures (Figure S4); assay type: cell-based; settings: 3× the IC50^8h of the most sensitive life stage, 8-h intervals

Compound | Ratio fil./std. (absorbance filtrate/standard) [1] | digestive vacuole morphology [2] | most susceptible stage by cell morphology [2]
CC(C)(C)c1ccc2c(c1)CN(Cc1ccc(Cl)cc1)CO2 [MMV000442] | 0.74 | – | –
CN(C)Cc1ccc(-c2cc3c(-c4ccc(CN(C)C)cc4)ccnc3[nH]2)cc1.O=C(O)C(F)(F)F [MMV022224] | – | without displaying swollen vacuoles | early and late trophozoite stages
